Values of other authors as cited in patent publication US20130210624A1, “COMPOSITION FOR IMPROVING PLANT HEALTH AND METHOD OF APPLYING SAME” (priority 2012, published 2013).

System: oranges
Conditions: single prebloom foliar application; Albrigo 1999

In the case of phosphite, the flower number is listed as “increased flower number” and the yield is listed as “increased yield”.
